Like-named read-outs stand apart in the source and are kept apart here.
Legend:
[1] = tested on: Green Peach Aphid (Myzus Persicae); assay: Insecticidal test for green peach aphid in foliar spray assay (col. MYZUPE); format: in vivo; details: for pest or weed control at 200 ppm: Myzus persicae, 72 h, read-out: MYZUPE 200 ppm (Corrected % Control, rating)
Procedure: (§1) The compounds were tested against cotton aphid, green peach aphid, and sweet potato whitefly using procedures described in the following examples and reported in Table 2.
(§2) In each case of Table 2, the rating scale is as follows at 200 ppm.
Insecticidal Test for Green Peach Aphid (Myzus Persicae) in Foliar Spray Assay
Cabbage seedlings grown in 3-inch pots, with 2-3 small (3-5 cm) true leaves, were used as test substrate. The seedlings were infested with 20-50 green peach aphids (wingless adult and nymph) one day prior to chemical application. Four pots with individual seedlings were used for each treatment. Compounds (2 mg) were dissolved in 2 mL of acetone/methanol (1:1) solvent, forming stock solutions of 1000 ppm. The stock solutions were diluted 5× with 0.025% Tween 20 in H2O to obtain a test solution at 200 ppm. A hand-held Devilbiss sprayer was used for spraying a solution to both sides of cabbage leaves until runoff. Reference plants (solvent check) were sprayed with the diluent only. Treated plants were held in a holding room for three days at approximately 25° C. and 40% relative humidity (RH) prior to grading. Evaluation was conducted by counting the number of live aphids per plant under a microscope. Corrected % Control=100*(X−Y)/X • where X=No. of live aphids on solvent check plants • Y=No. of live aphids on treated plants

[2] = tested on: Sweetpotato Whitefly-Crawler (Bemisia Tabaci); assay: Insecticidal test for sweetpotato whitefly-crawler in foliar spray assay (col. BEMITA); format: in vivo; details: for pest or weed control at 200 ppm: Bemisia tabaci, read-out: BEMITA 200 ppm (Corrected % Control, rating)
Procedure: as §1, §2
Insecticidal Test for Sweetpotato Whitefly-Crawler (Bemisia Tabaci) in Foliar Spray Assay
Cotton plants grown in 3-inch pots, with 1 small (3-5 cm) true leaf, were used as test substrate. The plants were placed in a room with whitefly adults. Adults were allowed to deposit eggs for 2-3 days. After a 2-3 day egg-laying period, plants were taken from the adult whitefly room. Adults were blown off leaves using a hand-held Devilbiss sprayer (23 psi). Plants with egg infestation (100-300 eggs per plant) were placed in a holding room for 5-6 days at 82° F. and 50% RH for egg hatch and crawler stage to develop. Four cotton plants were used for each treatment. Compounds (2 mg) were dissolved in 1 mL of acetone solvent, forming stock solutions of 2000 ppm. The stock solutions were diluted 10× with 0.025% Tween 20 in H2O to obtain a test solution at 200 ppm. A hand-held Devilbiss sprayer was used for spraying a solution to both sides of cotton leaf until runoff. Reference plants (solvent check) were sprayed with the diluent only. Treated plants were held in a holding room for 8-9 days at approximately 82° F. and 50% RH prior to grading. Evaluation was conducted by counting the number of live nymphs per plant under a microscope. Insecticidal activity was measured by using Abbott's correction formula and presented in Table 2 (see col. “BEMITA”): Corrected % Control=100*(X−Y)/X • where X=No. of live nymphs on solvent check plants • Y=No. of live nymphs on treated plants Pesticidally Acceptable Acid Addition Salts, Salt Derivatives, Solvates, Ester Derivatives, Polymorphs, Isotopes and Radionuclides

SMILES | pest or weed control at 200 ppm ([1]; green peach aphid) [%] | pest or weed control at 200 ppm ([2]; sweetpotato whitefly-crawler) [%] | further results
C=CCN(C(=O)C(C)CSC)c1sc(-c2cccnc2)nc1C (stereo not shown) [Compound 426] | 80 to 100 | 80 to 100 | –
CCOC(=O)N1CCCC(C(=O)N(C)c2sc(-c3cncc(F)c3)nc2C)C1 (stereo not shown) [Compound 586] | – | – | pest or weed control at 200 ppm ([1]; Abbott's correction formula): 80 to 100%; pest or weed control at 200 ppm ([2]; Abbott's correction formula): 80 to 100%
CSCC(C)C(=O)N(C(=O)OC(C)(C)C)c1sc(-c2cccnc2F)nc1C (stereo not shown) [Compound 154] | < 80 | < 80 | –
CC(=O)c1ccc(C(=O)N(C)c2sc(-c3cccnc3)nc2C)s1 [Compound 350] | < 80 | < 80 | –
CSC(C)C(=O)N(C)c1sc(-c2cccnc2)nc1C (stereo not shown) [Compound 360] | 80 to 100 | < 80 | –
CCN(C(=O)C(CSC)C(=O)CCSC)c1sc(-c2cccnc2)nc1Cl (stereo not shown) [Compound 496] | – | – | pest or weed control at 200 ppm ([1]; Abbott's correction formula): 80 to 100%; pest or weed control at 200 ppm ([2]; Abbott's correction formula): < 80%
CCN(C(=O)CCSc1ccccc1)c1sc(-c2cccnc2)nc1C [Compound 321] | 80 to 100 | < 80 | –
CCSCC(=O)N(C)c1sc(-c2cccnc2)nc1C [Compound 358] | 80 to 100 | 80 to 100 | –
Cc1nc(-c2cccnc2)sc1NC(=O)c1cnco1 [Compound 342] | < 80 | < 80 | –
CC(C)(C)OC(=O)Nc1sc(-c2cncc(F)c2)nc1F [Compound 353, [4-fluoro-2-(5-fluoro-pyridin-3-yl)-thiazol-5-yl]-carbamic acid tert-butyl ester] | < 80 | 80 to 100 | –
CN(C(=O)c1cscn1)c1sc(-c2cccnc2)nc1Cl [Compound 341] | – | – | MYZUPE 200 ppm (Corrected % Control, rating) ([1]; green peach aphid): B (Less than 80); BEMITA 200 ppm (Corrected % Control, rating) ([2]; sweetpotato whitefly-crawler): B (Less than 80)
CN(C(=O)c1cccc(SC(F)F)c1)c1sc(-c2cccnc2)nc1Cl [Compound 382] | < 80 | < 80 | –
CC(C)C(=O)N(C)c1sc(-c2cccnc2)nc1C(F)(F)F [Compound 46] | < 80 | < 80 | –
CC(=O)OC(C)C(=O)N(C)c1sc(-c2cccnc2)nc1C (stereo not shown) [Compound 335] | – | – | MYZUPE 200 ppm (Corrected % Control, rating) ([1]; green peach aphid): A (80-100); BEMITA 200 ppm (Corrected % Control, rating) ([2]; sweetpotato whitefly-crawler): A (80-100)
Cc1nc(-c2cccnc2)sc1NC(=O)CN(C)C(=O)c1cccs1 [Compound 438] | – | – | pest or weed control at 200 ppm ([1]; Abbott's correction formula): 80 to 100%; pest or weed control at 200 ppm ([2]; Abbott's correction formula): < 80%
CCN(C(=O)C(C)(C)CS(C)(=O)=O)c1sc(-c2cncc(F)c2)nc1C [Compound 261] | – | – | MYZUPE 200 ppm (Corrected % Control, rating) ([1]; green peach aphid): A (80-100); BEMITA 200 ppm (Corrected % Control, rating) ([2]; sweetpotato whitefly-crawler): A (80-100)
CSCC(C)C(=O)N(c1sc(-c2cccnc2)nc1C)C(C)C (stereo not shown) [Compound 222] | 80 to 100 | < 80 | –
CSCCC(=O)N(C)c1sc(-c2cncc(F)c2)nc1Cl [Compound 266] | 80 to 100 | 80 to 100 | –
CCCCOC(=O)N(C)c1sc(-c2cccnc2)nc1C [Compound 483] | – | – | pest or weed control at 200 ppm ([1]; Abbott's correction formula): < 80%; pest or weed control at 200 ppm ([2]; Abbott's correction formula): 80 to 100%
CSC(C)C(C)C(=O)N(C)c1sc(-c2cccnc2)nc1Cl (stereo not shown) [Compound 516] | – | – | pest or weed control at 200 ppm ([1]; Abbott's correction formula): 80 to 100%; pest or weed control at 200 ppm ([2]; Abbott's correction formula): < 80%
CN(C(=O)CC[S+](C)[O-])c1sc(-c2cncc(Cl)c2)nc1Cl (stereo not shown) [Compound 501] | – | – | pest or weed control at 200 ppm ([1]; Abbott's correction formula): 80 to 100%; pest or weed control at 200 ppm ([2]; Abbott's correction formula): 80 to 100%
COCC(C)OC(=O)N(C)c1sc(-c2cccnc2)nc1C (stereo not shown) [Compound 484] | – | – | pest or weed control at 200 ppm ([1]; Abbott's correction formula): < 80%; pest or weed control at 200 ppm ([2]; Abbott's correction formula): 80 to 100%
CSCC(C)C(=O)Nc1sc(-c2cccnc2)nc1Cl (stereo not shown) [Compound 588] | – | – | pest or weed control at 200 ppm ([1]; Abbott's correction formula): 80 to 100%; pest or weed control at 200 ppm ([2]; Abbott's correction formula): 80 to 100%
CC(C)(C)OC(=O)Nc1sc(-c2cccnc2)nc1C(F)(F)F [Compound 7, (2-pyridin-3-yl-4-trifluoromethyl-thiazol-5-yl)-carbamic acid tert-butyl ester] | < 80 | < 80 | –

SMILES | pest or weed control at 200 ppm ([1]; green peach aphid) [%] | pest or weed control at 200 ppm ([2]; sweetpotato whitefly-crawler) [%] | further results
CCCC(C)OC(=O)N(C)c1sc(-c2cccnc2)nc1C (stereo not shown) [Compound 482] | – | – | pest or weed control at 200 ppm ([1]; Abbott's correction formula): 80 to 100%; pest or weed control at 200 ppm ([2]; Abbott's correction formula): 80 to 100%
CS[C@H]1CC1C(=O)N(C)c1sc(-c2cncc(F)c2)nc1Cl (mixture of isomers) [Compound 445] | – | – | pest or weed control at 200 ppm ([1]; Abbott's correction formula): 80 to 100%; pest or weed control at 200 ppm ([2]; Abbott's correction formula): 80 to 100%
Cc1nc(-c2cccnc2)sc1N(CCF)C(=O)OC(C)(C)C [Compound 301] | 80 to 100 | 80 to 100 | –
Cc1nc(-c2cccnc2)sc1N(C)C(=O)C(C)C [Compound 37] | 80 to 100 | 80 to 100 | –
COc1cncc(-c2nc(Cl)c(N(C)C(=O)CCSC)s2)c1 [Compound 513] | – | – | pest or weed control at 200 ppm ([1]; Abbott's correction formula): < 80%; pest or weed control at 200 ppm ([2]; Abbott's correction formula): < 80%
CN(C)CC(=O)N(C)c1sc(-c2cccnc2)nc1Cl [Compound 432] | – | – | pest or weed control at 200 ppm ([1]; Abbott's correction formula): < 80%; pest or weed control at 200 ppm ([2]; Abbott's correction formula): < 80%
CN(C(=O)CC[S+](C)[O-])c1sc(-c2cccnc2)nc1Cl (stereo not shown) [Compound 174] | 80 to 100 | 80 to 100 | –
CSCC(C)(C)C(=O)N(C)c1sc(-c2cccnc2)nc1C(F)(F)F [Compound 45] | < 80 | 80 to 100 | –
Cc1nc(-c2cccnc2)sc1NC(=O)c1cscn1 [Compound 340] | 80 to 100 | < 80 | –
CSC(C)CC(=O)N(C)c1sc(-c2cccnc2)nc1Cl (stereo not shown) [Compound 248] | 80 to 100 | 80 to 100 | –
CSCCC(=O)N(C(=O)CCSC)c1sc(-c2cncc(F)c2)nc1C [Compound 185] | 80 to 100 | 80 to 100 | –
Cc1nc(-c2cccnc2)sc1N(C(=O)C(C)C)C(=O)C(C)C [Compound 21, N-isobutyryl-N-(4-methyl-2-pyridin-3-yl-thiazol-5-yl)-isobutyramide] | 80 to 100 | 80 to 100 | –
C=CC(=O)N(C(=O)C(C)CSC)c1sc(-c2cccnc2)nc1C (stereo not shown) [Compound 204] | 80 to 100 | < 80 | –
CC(=O)N1CCCC(C(=O)N(C)c2sc(-c3cccnc3)nc2Cl)C1 (stereo not shown) [Compound 413] | 80 to 100 | < 80 | –
CSCC(C)(C)C(=O)N(C)c1cnc(-c2cncc(F)c2)s1 [Compound 18, N-[2-(5-fluoropyridin-3-yl)-thiazol-5-yl]-2,2,N-trimethyl-3-methylsulfanyl-propionamide] | 80 to 100 | 80 to 100 | –
CN(C(=O)C1(C)CC1)c1sc(-c2cccnc2)nc1Cl [Compound 566] | – | – | pest or weed control at 200 ppm ([1]; Abbott's correction formula): 80 to 100%; pest or weed control at 200 ppm ([2]; Abbott's correction formula): 80 to 100%
CSCC(Cc1ccccc1)C(=O)N(C)c1sc(-c2cccnc2)nc1Cl (stereo not shown) [Compound 331] | < 80 | 80 to 100 | –
CSCCN(C)C(=O)N(C)c1cnc(-c2cncc(F)c2)s1 [Compound 74, [2-(5-fluoropyridin-3-yl)-thiazol-5-yl]-1,3-dimethyl-3-(2-methylsulfanyl-ethyl)urea] | 80 to 100 | 80 to 100 | –
CSCc1ccc(C(=O)N(C)c2sc(-c3cccnc3)nc2Cl)o1 [Compound 409] | – | – | MYZUPE 200 ppm (Corrected % Control, rating) ([1]; green peach aphid): A (80-100); BEMITA 200 ppm (Corrected % Control, rating) ([2]; sweetpotato whitefly-crawler): A (80-100)
CSCC(C)(C)C(=O)N(C)c1sc(-c2cncc(F)c2)nc1C [Compound 39] | 80 to 100 | 80 to 100 | –
CCN(C(=O)CCSC)c1sc(-c2cccnc2)nc1Cl [Compound 313, N-(4-chloro-2-pyridin-3-yl-thiazol-5-yl)-N-ethyl-3-methylsulfanyl-propionamide] | 80 to 100 | 80 to 100 | –
COCC(C)(C)OC(=O)N(C)c1sc(-c2cccnc2)nc1C [Compound 302] | < 80 | 80 to 100 | –
Cc1nc(-c2cncc(F)c2)sc1N(C)C(=O)CC[S+](C)[O-] (stereo not shown) [Compound 91] | 80 to 100 | 80 to 100 | –

— patent US8853246B2 (Dow AgroSciences LLC, priority 2009, dated 2014)
